Tested on: human lung adenocarcinoma epithelial cell line A549
Experiment: Growth inhibition in vitro of human tumor cell line A549 (MTT assay)
Format: cell-based
Conditions: for IC50: Homo sapiens, A549 cells, MTT assay, 24 hours incubation, read-out: IC 50, tumor cell growth inhibition in human tumor cell line A549
Experimental: Growth Inhibition In Vitro of Human Tumor Cell Line A549 by Examples:
Human lung adenocarcinoma epithelial cell line A549 was obtained from American Type Culture Collection (ATCC) and maintained in Dulbecco modified eagle medium supplemented with 10% fetal bovine serum. MTT assay was performed using the MTT cell proliferation assay kit (ATCC). Briefly, 3×10^3 A549 cells/well were plated in 96 well plates overnight and then incubated with different concentrations of tested compounds or vehicle controls for 24 hours. Ten μl of MTT reagent was added to each well for 120 min. The formazan crystal was dissolved with MTT detergent, and the OD value was measured at 570 nm using a SpectraMax M3 microplate reader (Molecular Devices). Data were normalized to vehicle controls and processed using GraphPad Prism 5.00.

Compound	IC50 [µM]	in vitro activity compared to Erlotinib in cell line A549 (human lung adenocarcinoma epithelial cell line A549, comparison in words)
C#Cc1cccc(Nc2ncnc3cc(OCCOCCOCCOCCOc4cc5c(Nc6cccc(C#C)c6)ncnc5cc4OCCOC)c(OCCOC)cc23)c1 [dimer 3, N-(3-ethynylphenyl)-6-(2-(2-(2-(2-((4-((3-ethynylphenyl)amino)-6-(2-methoxyethoxy)quinazolin-7-yl)oxy)ethoxy)ethoxy)ethoxy)ethoxy)-7-(2-methoxyethoxy)quinazolin-4-amine]	> 80	
C#Cc1cccc(Nc2ncnc3cc(OCCOCCOCCOCCOc4cc5ncnc(Nc6cccc(C#C)c6)c5cc4OCCOC)c(OCCOC)cc23)c1 [dimer 1, 7,7′-((((oxybis(ethane-2,1-diyl))bis(oxy))bis(ethane-2,1-diyl))bis(oxy))bis(N-(3-ethynylphenyl)-6-(2-methoxyethoxy)quinazolin-4-amine)]	> 80	
C#Cc1cccc(Nc2ncnc3cc(OCCOC)c(OCCOCCOCCOCCOc4cc5c(Nc6cccc(C#C)c6)ncnc5cc4OCCOC)cc23)c1 [dimer 2, 6,6′-((((oxybis(ethane-2,1-diyl))bis(oxy))bis(ethane-2,1-diyl))bis(oxy))bis(N-(3-ethynylphenyl)-7-(2-methoxyethoxy)quinazolin-4-amine)]	5.1	higher activity than Erlotinib
C#Cc1cccc(Nc2ncnc3cc(OCCOC)c(OCCOC)cc23)c1 [Erlotinib, reference compound]	9.9	
